Data published in patent US20230021483A1, “[…] […] METHOD AND CLASSIFICATION OF PHARMACEUTICAL COMPONENTS BY USING TRANSCRIPTOMES” (National Institutes of Biomedical Innovation, Health and …, priority 2016, published 2023).

Tests used:
[1] = system: preferentially upregulated genes in LV, SP, LN; assay: Z-score-based differential gene expression analysis (adjuvant group- or adjuvant-associated genes, 40 module mapping, TargetMine annotation); format: in vivo, C57BL/6 mice; conditions: for Stat1 1450034_at (Group G1, Modules 20) / Tdrd7 1426716_at (Group G1, Modules 20) / Tor1aip2 1418115_s_at (Group G1, Modules 20) / Tor1aip2 1418116_at (Group G1, Modules 20) / Tor1aip2 1435526_at (Group G1, Modules 20) / Trim12a 1437432_a_at (Group G1, Modules 20) / Uba7 1426970_a_at (Group G1, Modules 20) / Adar 1425405_a_at (Group G1, Modules 20) / Adar 1434268_at (Group G1, Modules 20) / Ddx58 1436562_at (Group G1, Modules 20) / Ddx58 1456890_at (Group G1, Modules 20) / Eif2ak2 1422005_at (Group G1, Modules 20) / G3bp2 1421323_a_at (Group G1, Modules 20) / Gm9706///Isg15 1431591_s_at (Group G1, Modules 20) / H2-T10///H2-T22///H2-T9 1449875_s_at (Group G1, Modules 20) / Ifih1 1426276_at (Group G1, Modules 20) / Ifit1 1450783_at (Group G1, Modules 20) / Ifit3 1449025_at (Group G1, Modules 20) / Irf7 1417244_a_at (Group G1, Modules 20) / Irgm1 1418825_at (Group G1, Modules 20) / Mndal 1426906_at (Group G1, Modules 20) / Pml 1448757_at (Group G1, Modules 20) / Pml 1456103_at (Group G1, Modules 20) / Rnf213 1455500_at (Group G1, Modules 20) / Rsad2 1436058_at (Group G1, Modules 20) / Shisa5 1423986_a_at (Group G1, Modules 20) / Shisa5 1437503_a_at (Group G1, Modules 20) / Stat1 1450033_a_at (Group G1, Modules 20): ID, LV
How it was run: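 Gene groups for each organ were built from combined z-score cutoffs across adjuvants, ranging from z>1 to z>3. Scores came from fold changes standardized per gene over the whole organ data set, with the three replicate z-scores added per adjuvant; sums above 3 marked preferential expression.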

[2] = system: inguinal lymph nodes (LN); assay: Whole organ transcriptome (GeneChip microarray) of draining inguinal lymph nodes 6 h after adjuvant administration: sDEGs, gene modules, hierarchical clustering; format: in vivo, C57BL/6 mice; for adjuvant group (cluster) in LN: key: G1 (interferon signaling); G2 (metabolism of lipids and lipoproteins); G3 (response to stress); G4 (response to wounding); G5 (phosphate-containing compound metabolic process); G6 (phagosome)
LV, SP and LNs = assay: Whole organ transcriptome across organs (adjuvant gene space): gene responses and adjuvant grouping; format: in vivo, C57BL/6 mice; conditions: hierarchical clustering; LV, SP and/or LNs
[3] = literature reports; cited from earlier work

With `Cc1ccc2c(=O)c3cccc(CC(=O)O)c3oc2c1C` [DMXAA, 5,6-dimethylxanthenone-4-acetic acid] the “Stat1 1450034_at (Group G1, Modules 20)” value ([1]; sample x1) was 1.53, the “Tdrd7 1426716_at (Group G1, Modules 20)” value ([1]; sample x1) was 1.6 and the “Tor1aip2 1418115_s_at (Group G1, Modules 20)” value (“Tor1aip2 1418115_s_at” for short) ([1]; sample x1) was 2.45. The “Tor1aip2 1418116_at (Group G1, Modules 20)” value (“Tor1aip2 1418116_at” below) ([1]; sample x1) was 2.19, the “Tor1aip2 1435526_at (Group G1, Modules 20)” value (“Tor1aip2 1435526_at” for short) ([1]; sample x1) was 2.23 and the “Trim12a 1437432_a_at (Group G1, Modules 20)” value (from here on “Trim12a 1437432_a_at”) ([1]; sample x1) was 1.82. For the same molecule, the “Uba7 1426970_a_at (Group G1, Modules 20)” value ([1]; sample x1) was 1.81, the “Adar 1425405_a_at (Group G1, Modules 20)” value ([1]; sample x2) was 1.5 and the “Adar 1434268_at (Group G1, Modules 20)” value ([1]; sample x2) was 1.52. The “Ddx58 1436562_at (Group G1, Modules 20)” value ([1]; sample x2) was 1.54, the “Ddx58 1456890_at (Group G1, Modules 20)” value ([1]; sample x2) was 1.93 and the “Eif2ak2 1422005_at (Group G1, Modules 20)” value ([1]; sample x2) was 1.3. The “G3bp2 1421323_a_at (Group G1, Modules 20)” value ([1]; sample x2) was 1.22, the “Gm9706///Isg15 1431591_s_at (Group G1, Modules 20)” value ([1]; sample x2) was 1.39 and the “H2-T10///H2-T22///H2-T9 1449875_s_at (Group G1, Modules 20)” value ([1]; sample x2) was 1.64. For the same molecule, the “Ifih1 1426276_at (Group G1, Modules 20)” value ([1]; sample x2) was 1.09, the “Ifit1 1450783_at (Group G1, Modules 20)” value ([1]; sample x2) was 1.54 and the “Ifit3 1449025_at (Group G1, Modules 20)” value ([1]; sample x2) was 1.3. For the same molecule, the “Irf7 1417244_a_at (Group G1, Modules 20)” value ([1]; sample x2) was 1.18, the “Irgm1 1418825_at (Group G1, Modules 20)” value ([1]; sample x2) was 1.33 and the “Mndal 1426906_at (Group G1, Modules 20)” value ([1]; sample x2) was 1.19. For the same molecule, the “Pml 1448757_at (Group G1, Modules 20)” value ([1]; sample x2) was 1.35, the “Pml 1456103_at (Group G1, Modules 20)” value ([1]; sample x2) was 1.34 and the “Rnf213 1455500_at (Group G1, Modules 20)” value ([1]; sample x2) was 1.2. For the same molecule, the “Rsad2 1436058_at (Group G1, Modules 20)” value ([1]; sample x2) was 1.25, the “Shisa5 1423986_a_at (Group G1, Modules 20)” value ([1]; sample x2) was 1.81 and the “Shisa5 1437503_a_at (Group G1, Modules 20)” value ([1]; sample x2) was 1.62. The “Stat1 1450033_a_at (Group G1, Modules 20)” value ([1]; sample x2) was 1.73, the “Stat1 1450034_at (Group G1, Modules 20)” value ([1]; sample x2) was 1.96 and the “Tdrd7 1426716_at (Group G1, Modules 20)” value ([1]; sample x2) was 1.74. For the same molecule, the “Tor1aip2 1418115_s_at” value ([1]; sample x2) was 1.52, the “Tor1aip2 1418116_at” value ([1]; sample x2) was 1.92 and the “Tor1aip2 1435526_at” value ([1]; sample x2) was 1.48. For the same molecule, the “Trim12a 1437432_a_at” value ([1]; sample x2) was 1.56, the “Uba7 1426970_a_at (Group G1, Modules 20)” value ([1]; sample x2) was 1.59 and the “Adar 1425405_a_at (Group G1, Modules 20)” value ([1]; sample x3) was 0.93. For the same molecule, the “Adar 1434268_at (Group G1, Modules 20)” value ([1]; sample x3) was 0.92, the “Ddx58 1436562_at (Group G1, Modules 20)” value ([1]; sample x3) was 1.31 and the “Ddx58 1456890_at (Group G1, Modules 20)” value ([1]; sample x3) was 1.56. The “Eif2ak2 1422005_at (Group G1, Modules 20)” value ([1]; sample x3) was 0.68, the “G3bp2 1421323_a_at (Group G1, Modules 20)” value ([1]; sample x3) was 0.71 and the “Gm9706///Isg15 1431591_s_at (Group G1, Modules 20)” value ([1]; sample x3) was 0.8. For the same molecule, the “H2-T10///H2-T22///H2-T9 1449875_s_at (Group G1, Modules 20)” value ([1]; sample x3) was 0.51, the “Ifih1 1426276_at (Group G1, Modules 20)” value ([1]; sample x3) was 0.78 and the “Ifit1 1450783_at (Group G1, Modules 20)” value ([1]; sample x3) was 1.04. The “Ifit3 1449025_at (Group G1, Modules 20)” value ([1]; sample x3) was 0.74, the “Irf7 1417244_a_at (Group G1, Modules 20)” value ([1]; sample x3) was 1 and the “Irgm1 1418825_at (Group G1, Modules 20)” value ([1]; sample x3) was 0.79. For the same molecule, the “Mndal 1426906_at (Group G1, Modules 20)” value ([1]; sample x3) was 0.73, the “Pml 1448757_at (Group G1, Modules 20)” value ([1]; sample x3) was 0.83 and the “Pml 1456103_at (Group G1, Modules 20)” value ([1]; sample x3) was 0.34. For the same molecule, the “Rnf213 1455500_at (Group G1, Modules 20)” value ([1]; sample x3) was 0.97, the “Rsad2 1436058_at (Group G1, Modules 20)” value ([1]; sample x3) was 0.44 and the “Shisa5 1423986_a_at (Group G1, Modules 20)” value ([1]; sample x3) was 1.42. For the same molecule, the “Shisa5 1437503_a_at (Group G1, Modules 20)” value ([1]; sample x3) was 1.72, the “Stat1 1450033_a_at (Group G1, Modules 20)” value ([1]; sample x3) was 1.15 and the “Stat1 1450034_at (Group G1, Modules 20)” value ([1]; sample x3) was 1.16. The “Tdrd7 1426716_at (Group G1, Modules 20)” value ([1]; sample x3) was 1.09, the “Tor1aip2 1418115_s_at” value ([1]; sample x3) was 0.98 and the “Tor1aip2 1418116_at” value ([1]; sample x3) was 1.37. The “Tor1aip2 1435526_at” value ([1]; sample x3) was 1.01, the “Trim12a 1437432_a_at” value ([1]; sample x3) was 1.11 and the “Uba7 1426970_a_at (Group G1, Modules 20)” value ([1]; sample x3) was 1.21. For the same molecule, the “preferentially induced biological process relative to adjuvants targeting the same receptor” value ([1]; LN, z-scores and 40 module mapping) was “preferentially induced RNA processing and gene expression responses more than cdiGMP or cGAMP”, the “adjuvant group-associated biological features” value ([1]; z-score selected genes, TargetMine and IPA upstream cytokine analyses) was “strongly associated with type I and type II interferon responses” and the “module M40^LN (immune system process; dendritic cells, macrophages, neutrophils, stromal cells)” value ([2]; LN, 6 h) was “strongly induced”. For the same molecule, the “adjuvant group (cluster) in LN” value ([2]; hierarchical clustering, lymph node) was “G1”, the “Number of gene probes with statistically significant changes (sDEGs), LN, Down” value ([2]; i.d. administration, lymph node, fold change <0.667, p<0.01, customized PA call=1, 6 h after adjuvant) was 261 and the “Number of gene probes with statistically significant changes (sDEGs), LN, Up” value ([2]; i.d. administration, lymph node, fold change >1.5, p<0.01, customized PA call=1, 6 h after adjuvant) was 1342. The “adjuvant group (cluster) within the adjuvant gene space” value (LV, SP and LNs) was “group (G) 1” and the Th response induced [3] was “induces Th2 responses”.
